Measurements as given in publication PMC5064235, “Structure-Based Design of Novel Tetrahydro-Beta-Carboline Derivatives with a Hydrophilic Side Chain as Potential Phosphodiesterase Inhibitors” (Scientia Pharmaceutica, 2015).

Experiments:
[1] = target: phosphodiesterase-5 (PDE5); conditions: previously reported tadalafil analogues, introduction; cited from earlier work
recombinant human PDE5 = target: T1, recombinant human PDE5 (Homo sapiens, UniProt O76074); experiment: In vitro PDE5 inhibitory activity (IMAP FP phosphodiesterase assay); type: biochemical; conditions: purified PDE5, 50 nM TAMRA-cGMP, 1.5 h at 30 °C; 10 concentrations, at least two replicates; read-out: PDE5 Inhibition IC50
T1 construct: purchased BPS Biosciences, San Diego, CA, USA
Procedure: Phosphodiesterase Assay: 5 U/mL of purified PDE5 (BPS Biosciences, San Diego, CA, USA) was added to the wells of black 96-well non-binding plates. Immediately, the protein was treated with the compound or vehicle control and 50 nM TAMRA-cGMP and 50 nM Fluourescein-cAMP (Molecular Devices, Sunnyvale, CA, USA) were added to each assay well. The plates were incubated for 1.5 h at 30 °C. After incubation, the IMAP FP Phosphodiesterase Evaluation Assay (Molecular Devices, Sunnyvale, CA, USA) binding reagent was added to each well and the plates were incubated for an additional 30 min at 30 °C. FP was measured according to manufacturer’s specifications using a Biotech Synergy 4 plate reader. PDE activity was expressed by an IC50 value (50% inhibitory concentration). Data analysis was done through dose-response analysis, which was repeated at least twice to confirm the reproducibility of the IC50 values.
All the synthesized final THβC compounds were tested for their ability to inhibit recombinant human PDE5. Most of the compounds were evaluated in two steps. The first step was the determination of the percentage inhibition at a screening dose of 10 μM performed in triplicate. For compounds displaying a percentage of inhibition >50%, the IC50 was then determined by testing a range of 10 concentrations with at least two replicates per concentration (Table 2).

Row | SMILES | IC50 (recombinant human PDE5) | melting point | IC50 [1]
1 | CCN1CC(=O)N2[C@H](c3ccc(Cl)cc3)c3[nH]c4ccccc4c3C[C@@H]2C1=O [Compound 2] | – | – | 3 nM
2 | CCN1CC(=O)N2[C@H](c3ccc(Br)cc3)c3[nH]c4ccccc4c3C[C@@H]2C1=O [Compound 3] | – | – | 3 nM
3 | NCCN1CC(=O)N2[C@@H](c3ccc(Cl)cc3)c3[nH]c4ccccc4c3C[C@H]2C1=O [Compound 6j, (6S,12aS)-2-(2-Amino-ethyl)-6-(4-chloro-phenyl)-2,3,6,7,12,12a-hexahydro-pyrazino[1’,2’:1,6]pyrido[3,4-b]indole-1,4-dione] | > 10000 nM | 231 to 233 °C | –

More lines, main results first:

Row | IC50 (recombinant human PDE5) | melting point | SMILES | IC50 [1]
4 | 2310 nM | 227 to 229 °C | O=C1[C@@H]2Cc3c([nH]c4ccccc34)[C@H](c3ccc(Cl)cc3)N2C(=O)CN1CCCCO [Compound 6k, (6S,12aS)-6-(4-Chloro-phenyl)-2-(4-hydroxy-butyl)-2,3,6,7,12,12a-hexahydropyrazino[1’,2’:1,6]pyrido[3,4-b]indole-1,4-dione] | –
5 | > 10000 nM | 202 to 206 °C | O=C1[C@@H]2Cc3c([nH]c4ccccc34)[C@@H](c3ccc(Cl)cc3)N2C(=O)CN1CCO [Compound 6m, (6R,12aS)-6-(4-Chloro-phenyl)-2-(2-hydroxy-ethyl)-2,3,6,7,12,12a-hexahydro-pyrazino[1’,2’:1,6]pyrido[3,4-b]indole-1,4-dione] | –
6 | > 10000 nM | 200 to 204 °C | NCCN1CC(=O)N2[C@H](c3ccc(Cl)cc3)c3[nH]c4ccccc4c3C[C@H]2C1=O [Compound 6n, (6R,12aS)-2-(2-Amino-ethyl)-6-(4-chloro-phenyl)-2,3,6,7,12,12a-hexahydro-pyrazino[1’,2’:1,6]pyrido[3,4-b]indole-1,4-dione] | –
7 | 2310 nM | 199 to 203 °C | O=C1[C@@H]2Cc3c([nH]c4ccccc34)[C@@H](c3ccc(Cl)cc3)N2C(=O)CN1CCCCO [Compound 6o, (6R,12aS)-6-(4-Chloro-phenyl)-2-(4-hydroxy-butyl)-2,3,6,7,12,12a-hexahydropyrazino[1’,2’:1,6]pyrido[3,4-b]indole-1,4-dione] | –
